One may read the IC50 as the concentration needed to halve the response being measured.

This series in a line: Antioxidative activity of the compound assessed as DPPH radical scavenging activity. The series is classed as physicochemical.
Consider `CC/C=C/C[C@H](O)/C=C/[C@H](O)[C@H](O)[C@H](O)CCCCC[C@H](C)O`, for which the IC50 amounted to 25.4 µM. The result for `O=C(/C=C/c1ccc(O)c(O)c1)O[C@@H]1C[C@](O)(C(=O)O)C[C@@H](O)[C@H]1O` [CHLOROGENIC ACID] reads 56.4 µM. `C=C[C@](C)(CC/C=C(\CO)CC/C=C(\C)C[C@@H](O)/C=C(\C)C(=O)O)O[C@H]1O[C@@H](CO)[C@H](O)[C@@H](O)[C@@H]1O`: the IC50 was 40.2 µM. In the case of `C=C[C@](C)(O)CC/C=C(C)/C=C/[C@@H](O[C@H]1O[C@@H](CO)[C@H](O)[C@@H](O)[C@@H]1O)C(C)(C)O`, the IC50 was 38.4 µM. For `C=C[C@](C)(O)C[C@@H](O)/C=C(\C)[C@@H](O)CC=C(C)C`, the IC50 turned out to be 23.5 µM.
